± gives the expanded uncertainty stated by the source.
Legend:
[1] = molar heat capacity at constant pressure; settings: 101.33 kPa, Small (less than 1 g) adiabatic calorimetry
[2] = Crystal; Adiabatic calorimetry
[3] = Molar enthalpy of transition or fusion; settings: Crystal; Adiabatic calorimetry

For `c1ccc(Oc2ccccc2)cc1` [diphenyl ether], the “molar heat capacity at constant pressure” value ([1]; 282.08 K, Crystal) was 202.2 ± 1.4 J/K/mol, the “molar heat capacity at constant pressure” value ([1]; 283.34 K, Crystal) was 202.92 ± 1.4 J/K/mol and the “molar heat capacity at constant pressure” value ([1]; 285.84 K, Crystal) was 203.66 ± 1.4 J/K/mol. The “molar heat capacity at constant pressure” value ([1]; 287.09 K, Crystal) was 205.43 ± 1.4 J/K/mol, the “molar heat capacity at constant pressure” value ([1]; 288.33 K, Crystal) was 206.1 ± 1.4 J/K/mol and the “molar heat capacity at constant pressure” value ([1]; 289.59 K, Crystal) was 207.25 ± 1.4 J/K/mol. For the same compound, the “molar heat capacity at constant pressure” value ([1]; 290.84 K, Crystal) was 208.01 ± 1.4 J/K/mol, the “molar heat capacity at constant pressure” value ([1]; 292.1 K, Crystal) was 209.17 ± 1.4 J/K/mol and the “molar heat capacity at constant pressure” value ([1]; 321.46 K, Liquid) was 276.46 ± 1.9 J/K/mol. The “molar heat capacity at constant pressure” value ([1]; 323.17 K, Liquid) was 278.21 ± 1.9 J/K/mol, the “molar heat capacity at constant pressure” value ([1]; 324.89 K, Liquid) was 278.93 ± 1.9 J/K/mol and the “molar heat capacity at constant pressure” value ([1]; 326.63 K, Liquid) was 279.41 ± 1.9 J/K/mol. The “molar heat capacity at constant pressure” value ([1]; 328.37 K, Liquid) was 279.66 ± 1.9 J/K/mol, the “molar heat capacity at constant pressure” value ([1]; 330.1 K, Liquid) was 280.76 ± 1.9 J/K/mol and the “molar heat capacity at constant pressure” value ([1]; 331.85 K, Liquid) was 281.87 ± 1.9 J/K/mol. The “molar heat capacity at constant pressure” value ([1]; 333.61 K, Liquid) was 282.69 ± 1.9 J/K/mol, the “molar heat capacity at constant pressure” value ([1]; 335.38 K, Liquid) was 283.24 ± 1.9 J/K/mol and the Triple point temperature [2] was 299.96 ± 0.05 K. The “Molar enthalpy of transition or fusion” value [3] was 4.092 ± 0.0287 kcal/mol.
